Experimental data as given in article PMC9736157 (Molecules, 2022).
Where two headings read alike, the source gives them in different places.

Columns and labels:
[1] = biological target: T1, B-RAF (V600E) (Homo sapiens, UniProt P15056, V600E); test: BRAF^V600E inhibition assay (B-RAF (V600E) Kinase Assay Kit, Kinase-Glo MAX); format: biochemical; settings: isolated BRAF^V600E, ATP 10 μM, 30 °C, 45 min; three experiments in duplicate; read-out: BRAF (V600E) Kinase Activity IC50 (nM ± SEM)
T1 construct: purchased BPS Bioscience
T1 sequence (P15056 whole entry V600E): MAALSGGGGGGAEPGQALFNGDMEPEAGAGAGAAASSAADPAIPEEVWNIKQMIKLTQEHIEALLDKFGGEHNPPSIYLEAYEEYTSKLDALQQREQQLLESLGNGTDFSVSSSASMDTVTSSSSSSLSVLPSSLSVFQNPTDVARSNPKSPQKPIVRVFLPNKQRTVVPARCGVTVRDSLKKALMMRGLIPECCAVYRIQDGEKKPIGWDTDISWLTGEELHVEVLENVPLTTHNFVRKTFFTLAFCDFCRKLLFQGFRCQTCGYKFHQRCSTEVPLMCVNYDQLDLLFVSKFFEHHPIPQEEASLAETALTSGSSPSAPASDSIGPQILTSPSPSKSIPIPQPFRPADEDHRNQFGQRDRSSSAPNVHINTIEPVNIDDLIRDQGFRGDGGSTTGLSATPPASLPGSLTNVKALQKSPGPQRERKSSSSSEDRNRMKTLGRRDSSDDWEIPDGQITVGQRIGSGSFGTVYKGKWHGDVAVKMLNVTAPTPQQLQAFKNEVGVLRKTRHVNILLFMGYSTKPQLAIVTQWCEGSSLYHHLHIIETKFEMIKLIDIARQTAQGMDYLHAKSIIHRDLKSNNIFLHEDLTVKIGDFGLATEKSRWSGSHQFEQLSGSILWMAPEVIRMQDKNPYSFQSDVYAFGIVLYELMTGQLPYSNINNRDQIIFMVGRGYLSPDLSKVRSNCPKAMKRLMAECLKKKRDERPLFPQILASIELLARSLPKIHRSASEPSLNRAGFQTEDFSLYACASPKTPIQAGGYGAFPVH
Experimental: In a 96-well plate, the different inhibitor solutions in DMSO were mixed with Buffer, ATP (10 μM) and Raf substrate. […] After a 15 min delay to equilibrate plate temperature, 50 μL of Kinase-Glo Max was added in each well, and the luminescence was measured according to supplier’s instruction. The results, reported as IC50 ± S.E.M., were calculated with GrapPad Prism 7 and derive from three different experiments run in duplicate.

[2] = test system: A375 melanoma cell line; test: Antiproliferative activity, CellTiter-Glo, A375; format: cell-based; settings: Homo sapiens, A-375, A375, 72 h
Experimental: Based on the previous preliminary tests, we sought to investigate the ability of synthesized compounds 5–15 and reference 1 in inhibiting the proliferation of BRAF^V600E mutant cancer cells. A first screening was conducted in A375 melanoma cell lines (Table 1, Figure S2). Encorafenib was employed for comparison.
(§1) The ability of compounds 5, 10, 11, 15–selected based on their chemical diversity–to inhibit cell proliferation was then tested both in A375 and in Colo205 cancer cell lines. […] P5B was obtained by joining the BRAF inhibitor BI 882370 to pomalidomide through a five PEG unit spacer (Figure S3). In compound P5B, the linker length was of 17 atoms, the same length of the spacer used to generate our compound 10. A375 and Colo205 cells were treated for 72 h with compounds 5, 10, 11, 15, and P5B, and the antiproliferative activity was measured by a luminescent ATP-based assay, which determines the number of viable cells based on their metabolic activity. […] However, P5B was more efficient in inhibiting tumor cell viability in comparison with the other selected compounds.
(§2) Cell viability was evaluated by means of CellTiter-Glo Luminescent Assay (Promega), which allows users to measure the ATP in the cell supernatant. The assay was performed according to manufacturer’s instructions. In brief, 4.10^3 A375 or Colo205 were seeded into 96-well plates and allowed to adhere at the wall overnight. Cells were treated for 72 h with BRAF inhibitor compounds. Then, 90 µL of the cell culture medium was transferred in a white 96-well plate, to which 10 µL of CellTiter-Glo was added before measurement of luminescence. Luminescence was measured by the SPARK M10 (Tecan, Männedorf, Switzerland) plate reader.

[3] = test system: Colo205 cell line; test: Antiproliferative activity, CellTiter-Glo, Colo205; format: cell-based; settings: Homo sapiens, COLO 205; Colo205, 72 h (Figure 6b); read-out: Antiproliferative activity IC50 (nM ± SEM)
Experimental: as §1, §2

[4] = test system: phosphorylation of MEK and ERK; test: Western blot, BRAF signaling in A375; format: cell-based; settings: A375, 24 h incubation
Experimental: (§3) Finally, we investigated the capability of the most antiproliferative compounds in interfering with BRAF pathway, favoring target degradation. To this end, Western blot analysis was conducted 24 h after incubation with 10 and 11 in both A375 and Colo205 cell lines. […] This observation was consistent with their ability to inhibit BRAF^V600E.
(§4) To measure the capability of our compounds to interfere with BRAF pathway, pre-treated A375 and Colo205 cells were lysed. […] The total protein amount was determined using the bicinchoninic acid (BCA) protein assay reagent (Thermo Scientific, Waltham, MA, USA). […] Proteins were then transferred from gel to nitrocellulose with a Trans-Blot Turbo transfer system (Biorad, Hercules, CA, USA), probed with goat anti-rabbit IgG (H+L) secondary antibody, HRP conjugate (Invitrogen) or goat anti-mouse IgG (H+L) secondary antibody, HRP conjugate (Jackson ImmunoResearch Inc., Langcaster, PA, USA), and detected using enhanced chemiluminescence technique (Western Lightning Plus-ECL, Enhanced Chemiluminescence Substrate; Perkin Elmer, catalog # NEL105001EA, Waltham, MA, USA).

[5] = test system: phosphorylation of MEK and ERK; test: Western blot, BRAF signaling in Colo205; format: cell-based; settings: Colo205, 24 h incubation
Experimental: as §3, §4

[6] = test system: T2, BRAF^V600E; test: Western blot, BRAF^V600E degradation in Colo205; format: cell-based
T2 construct: endogenous in cells; host or cells: A375 and Colo205 cell lines
Experimental: as §3
(§5) To measure the capability of our compounds to interfere with BRAF pathway, pre-treated A375 and Colo205 cells were lysed. We then performed protein analysis through Western blot by using the following primary antibodies: anti-phospho ERK 1/2 (clone E10; dilution 1:1000; Cell Signaling Technology, Danvers, MA, USA) and anti-ERK (clone 137F5; dilution 1:1000; Cell Signaling Technology); anti-phospho MEK (clone S217/221; dilution 1:1000; Cell Signaling Technology); anti-MEK1,2 (clone 9122; dilution 1:1000; Cell Signaling Technology); anti-BRAF v600e (dilution 1:1000; Abcam, Cambridge, UK); and anti-total BRAF (dilution 1:1000; ThermoFisher, Waltham, MA, USA). Vinculin (clone E1E9B; dilution 1:1000; Cell Signaling Technology) was used as a loading control. The total protein amount was determined using the bicinchoninic acid (BCA) protein assay reagent (Thermo Scientific, Waltham, MA, USA). Equivalent amounts of protein were separated by SDS–PAGE on precast Bolt 4–12% Bis-Tris gel (Invitrogen, Carlsbad, CA, USA). Proteins were then transferred from gel to nitrocellulose with a Trans-Blot Turbo transfer system (Biorad, Hercules, CA, USA), probed with goat anti-rabbit IgG (H+L) secondary antibody, HRP conjugate (Invitrogen) or goat anti-mouse IgG (H+L) secondary antibody, HRP conjugate (Jackson ImmunoResearch Inc., Langcaster, PA, USA), and detected using enhanced chemiluminescence technique (Western Lightning Plus-ECL, Enhanced Chemiluminescence Substrate; Perkin Elmer, catalog # NEL105001EA, Waltham, MA, USA).

[7] = test system: T2, BRAF^V600E; test: Western blot, BRAF^V600E degradation in A375; format: cell-based
Experimental: as §3, §5

[8] = first screening (Table 1), read-out: Antiproliferative Activity IC50 ± SEM
[9] = second set of experiments (Figure 6a), read-out: Antiproliferative activity IC50 (nM ± SEM)

Row | SMILES | IC50 [1] | IC50 [2, 8] | also measured
1 | CC(C)n1cc(-c2ccnc(NC[C@H](C)NC(=O)CCCNc3cccc4c3C(=O)N(C3CCC(=O)NC3=O)C4=O)n2)c(-c2cc(Cl)cc(NS(C)(=O)=O)c2F)n1 (stereo partly drawn) [Compound 5, N-((S)-1-((4-(3-(5-chloro-2-fluoro-3-(methylsulfonamido)phenyl)-1-isopropyl-1H-pyrazol-4-yl)pyrimidin-2-yl)amino)propan-2-yl)-4-((2-(2,6-dioxopiperidin-3-yl)-1,3-dioxoisoindolin-4-yl)amino)butanamide] | 61 ± 10 nM | 2740 ± 71 nM | IC50 [2, 9]: 1320 ± 304 nM; IC50 [3]: 280 ± 24 nM
2 | CC(C)n1cc(-c2ccnc(NC[C@H](C)NC(=O)CCOCCNc3cccc4c3C(=O)N(C3CCC(=O)NC3=O)C4=O)n2)c(-c2cc(Cl)cc(NS(C)(=O)=O)c2F)n1 (stereo partly drawn) [Compound 6, N-((S)-1-((4-(3-(5-chloro-2-fluoro-3-(methylsulfonamido)phenyl)-1-isopropyl-1H-pyrazol-4-yl)pyrimidin-2-yl)amino)propan-2-yl)-3-(2-((2-(2,6-dioxopiperidin-3-yl)-1,3-dioxoisoindolin-4-yl)amino)ethoxy)propanamide] | 52 ± 12 nM | 406.1 ± 2.4 nM | –
3 | CC(C)n1cc(-c2ccnc(NC[C@H](C)NC(=O)CCOCCOCCNc3cccc4c3C(=O)N(C3CCC(=O)NC3=O)C4=O)n2)c(-c2cc(Cl)cc(NS(C)(=O)=O)c2F)n1 (stereo partly drawn) [Compound 7, N-((S)-1-((4-(3-(5-chloro-2-fluoro-3-(methylsulfonamido)phenyl)-1-isopropyl-1H-pyrazol-4-yl)pyrimidin-2-yl)amino)propan-2-yl)-3-(2-(2-((2-(2,6-dioxopiperidin-3-yl)-1,3-dioxoisoindolin-4-yl)amino)ethoxy)ethoxy)propanamide] | 66 ± 15 nM | 520 ± 80.5 nM | –
4 | CC(C)n1cc(-c2ccnc(NC[C@H](C)NC(=O)CCOCCOCCOCCOCCNc3cccc4c3C(=O)N(C3CCC(=O)NC3=O)C4=O)n2)c(-c2cc(Cl)cc(NS(C)(=O)=O)c2F)n1 (stereo partly drawn) [Compound 9, N-((S)-1-((4-(3-(5-chloro-2-fluoro-3-(methylsulfonamido)phenyl)-1-isopropyl-1H-pyrazol-4-yl)pyrimidin-2-yl)amino)propan-2-yl)-1-((2-(2,6-dioxopiperidin-3-yl)-1,3-dioxoisoindolin-4-yl)amino)-3,6,9,12-tetraoxapentadecan-15-amide] | 67 ± 16 nM | 2000 ± 31.8 nM | –
5 | CC(C)n1cc(-c2ccnc(NC[C@H](C)NC(=O)CCOCCOCCn3cc(CNc4cccc5c4C(=O)N(C4CCC(=O)NC4=O)C5=O)nn3)n2)c(-c2cc(Cl)cc(NS(C)(=O)=O)c2F)n1 (stereo partly drawn) [Compound 11, N-((S)-1-((4-(3-(5-chloro-2-fluoro-3-(methylsulfonamido)phenyl)-1-isopropyl-1H-pyrazol-4-yl)pyrimidin-2-yl)amino)propan-2-yl)-3-(2-(2-(4-(((2-(2,6-dioxopiperidin-3-yl)-1,3-dioxoisoindolin-4-yl)amino)methyl)-1H-1,2,3-triazol-1-yl)ethoxy)ethoxy)propanamide] | 43 ± 16 nM | 389 ± 15.1 nM | phosphorylation of MEK and ERK [4]: able to decrease phosphorylation of MEK and ERK; phosphorylation of MEK and ERK [5]: able to decrease phosphorylation of MEK and ERK; BRAF^V600E degradation ([6]; Colo205, 24 h, 100–500 nM): not able to induce BRAF^V600E degradation; BRAF^V600E degradation at higher concentration ([6]; Colo205, up to 10 µM (Figure S4)): no degradation of the target protein; IC50 [2, 9]: 417 ± 33 nM; IC50 [3]: 104 ± 20 nM; BRAF^V600E degradation ([7]; A375, 24 h, 100–500 nM): not able to induce BRAF^V600E degradation; BRAF^V600E degradation at higher concentration ([7]; A375, up to 10 µM (Figure S4)): no degradation of the target protein
6 | CC(C)n1cc(-c2ccnc(NC[C@H](C)NC(=O)CCOCCOCCn3cc(COCCC(=O)Nc4cccc5c4C(=O)N(C4CCC(=O)NC4=O)C5=O)nn3)n2)c(-c2cc(Cl)cc(NS(C)(=O)=O)c2F)n1 (stereo partly drawn) [Compound 12, N-((S)-1-((4-(3-(5-chloro-2-fluoro-3-(methylsulfonamido)phenyl)-1-isopropyl-1H-pyrazol-4-yl)pyrimidin-2-yl)amino)propan-2-yl)-3-(2-(2-(4-((3-((2-(2,6-dioxopiperidin-3-yl)-1,3-dioxoisoindolin-4-yl)amino)-3-oxopropoxy)methyl)-1H-1,2,3-triazol-1-yl)ethoxy)ethoxy)propanamide] | 40 ± 4 nM | 732 ± 16 nM | –
7 | CC(C)n1cc(-c2ccnc(NC[C@H](C)NC(=O)CCOCCOCCn3cc(COCCOCCNc4cccc5c4C(=O)N(C4CCC(=O)NC4=O)C5=O)nn3)n2)c(-c2cc(Cl)cc(NS(C)(=O)=O)c2F)n1 (some centres unmarked) [Compound 13] | 58 ± 19 nM | 4100 ± 71.5 nM | –
8 | CC(C)n1cc(-c2ccnc(NC[C@H](C)NC(=O)CCOCCOCCOCC(=O)Nc3cccc4c3CN(C3CCC(=O)NC3=O)C4=O)n2)c(-c2cc(Cl)cc(NS(C)(=O)=O)c2F)n1 (stereo partly drawn) [Compound 14, N-((S)-1-((4-(3-(5-chloro-2-fluoro-3-(methylsulfonamido)phenyl)-1-isopropyl-1H-pyrazol-4-yl)pyrimidin-2-yl)amino)propan-2-yl)-3-(2-(2-(2-((2-(2,6-dioxopiperidin-3-yl)-1-oxoisoindolin-4-yl)amino)-2-oxoethoxy)ethoxy)ethoxy)propenamide] | 88 ± 17 nM | 1046 ± 0.75 nM | –
9 | Cc1ncsc1-c1ccc(CNC(=O)[C@@H]2C[C@@H](O)CN2C(=O)[C@@H](NC(=O)COCCOCCOCCC(=O)N[C@@H](C)CNc2nccc(-c3cn(C(C)C)nc3-c3cc(Cl)cc(NS(C)(=O)=O)c3F)n2)C(C)(C)C)cc1 [Compound 15, (2S,4R)-1-((2S,17S)-2-(tert-butyl)-18-((4-(3-(5-chloro-2-fluoro-3-(methylsulfonamido)phenyl)-1-isopropyl-1H-pyrazol-4-yl)pyrimidin-2-yl)amino)-17-methyl-4,15-dioxo-6,9,12-trioxa-3,16-diazaoctadecanoyl)-4-hydroxy-N-(4-(4-methylthiazol-5-yl)benzyl)pyrrolidine-2-carboxamide] | 78 ± 9 nM | 3380 ± 172 nM | IC50 [2, 9]: 3830 ± 784 nM; IC50 [3]: 1230 ± 543 nM
10 | COCCOCCOCCOCCC(=O)N[C@@H](C)CNc1nccc(-c2cn(C(C)C)nc2-c2cc(Cl)cc(NS(C)(=O)=O)c2F)n1 [Compound 54, (S)-N-(1-((4-(3-(5-chloro-2-fluoro-3-(methylsulfonamido)phenyl)-1-isopropyl-1H-pyrazol-4-yl)pyrimidin-2-yl)amino)propan-2-yl)-2,5,8,11-tetraoxatetradecan-14-amide] | 80 ± 7 nM | – | –
11 | COC(=O)N[C@@H](C)CNc1nccc(-c2cn(C(C)C)nc2-c2cc(Cl)cc(NS(C)(=O)=O)c2F)n1 [encorafenib (1), encorafenib, reference compound] | – | < 50 nM | –
